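Compound exposure: 48 hours, 5 concentrations, 96-well plates. Definition used: TGI = concentration required for complete inhibition of growth.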
Tests used:
Experiment in all cases: NCI anticancer screen, dose series, 48 h
UACC-62 melanoma = tested on: UACC-62 melanoma
PC-3 prostate = tested on: PC-3 prostate
RPMI-8226 leukemia = tested on: RPMI-8226 leukemia
KM12 colon = tested on: KM12 colon
MCF7 breast = tested on: MCF7 breast
SK-MEL-28 melanoma = tested on: SK-MEL-28 melanoma
IGROV1 ovarian = tested on: IGROV1 ovarian
UACC-257 melanoma = tested on: UACC-257 melanoma
HCC-2998 colon = tested on: HCC-2998 colon
UO-31 renal = tested on: UO-31 renal
M14 melanoma = tested on: M14 melanoma
HCT-15 colon = tested on: HCT-15 colon
T-47D breast = tested on: T-47D breast
HT29 colon = tested on: HT29 colon
SK-OV-3 ovarian = tested on: SK-OV-3 ovarian
MDA-MB-435 = tested on: MDA-MB-435
SNB-75 CNS = tested on: SNB-75 CNS
CCRF-CEM leukemia = tested on: CCRF-CEM leukemia
DU-145 prostate = tested on: DU-145 prostate
U251 CNS = tested on: U251 CNS
SN12C renal = tested on: SN12C renal
BT-549 breast = tested on: BT-549 breast
MDA-MB-231 breast = tested on: MDA-MB-231 breast
OVCAR-4 ovarian = tested on: OVCAR-4 ovarian
RXF 393 renal = tested on: RXF 393 renal
SNB-19 CNS = tested on: SNB-19 CNS
SF-539 CNS = tested on: SF-539 CNS
HCT-116 colon = tested on: HCT-116 colon
LOX IMVI melanoma = tested on: LOX IMVI melanoma
SF-268 CNS = tested on: SF-268 CNS
NCI-H522 lung = tested on: NCI-H522 lung
HOP-92 NSCLC = tested on: HOP-92 NSCLC
NCI-H460 lung = tested on: NCI-H460 lung
EKVX NSCLC = tested on: EKVX NSCLC
ACHN renal = tested on: ACHN renal
SF-295 CNS = tested on: SF-295 CNS
HS 578T breast = tested on: HS 578T breast
SW-620 colon = tested on: SW-620 colon
SR leukemia = tested on: SR leukemia
NCI-H23 lung = tested on: NCI-H23 lung
COLO 205 colon = tested on: COLO 205 colon
A498 renal = tested on: A498 renal
SK-MEL-5 melanoma = tested on: SK-MEL-5 melanoma
OVCAR-8 ovarian = tested on: OVCAR-8 ovarian
NCI/ADR-RES ovarian = tested on: NCI/ADR-RES ovarian
MOLT-4 leukemia = tested on: MOLT-4 leukemia
A549 NSCLC = tested on: A549 NSCLC
786-0 renal = tested on: 786-0 renal
SK-MEL-2 melanoma = tested on: SK-MEL-2 melanoma
CAKI-1 renal = tested on: CAKI-1 renal
HOP-62 NSCLC = tested on: HOP-62 NSCLC
MDA-N = tested on: MDA-N
NCI-H226 lung = tested on: NCI-H226 lung
K-562 leukemia = tested on: K-562 leukemia
TK-10 renal = tested on: TK-10 renal
OVCAR-5 ovarian = tested on: OVCAR-5 ovarian
OVCAR-3 ovarian = tested on: OVCAR-3 ovarian
MALME-3M melanoma = tested on: MALME-3M melanoma
HL-60(TB) leukemia = tested on: HL-60(TB) leukemia

## c1ccc(C2=Nn3c(CCCCCCCCc4nnc5n4N=C(c4ccccc4)CS5)nnc3SC2)cc1
UACC-62 melanoma
  TGI: > 100 µM
PC-3 prostate
  TGI: > 100 µM
RPMI-8226 leukemia
  TGI: > 100 µM
KM12 colon
  TGI: > 100 µM
MCF7 breast
  TGI: > 100 µM
SK-MEL-28 melanoma
  TGI: > 100 µM
IGROV1 ovarian
  TGI: > 100 µM
UACC-257 melanoma
  TGI: > 100 µM
HCC-2998 colon
  TGI: > 100 µM
UO-31 renal
  TGI: > 100 µM
M14 melanoma
  TGI: > 100 µM
HCT-15 colon
  TGI: > 100 µM
T-47D breast
  TGI: > 100 µM
HT29 colon
  TGI: > 50.6 µM
SK-OV-3 ovarian
  TGI: 85.6 µM
MDA-MB-435
  TGI: > 100 µM
SNB-75 CNS
  TGI: 33.6 µM
CCRF-CEM leukemia
  TGI: > 59.7 µM
DU-145 prostate
  TGI: > 100 µM
U251 CNS
  TGI: 36.8 µM
SN12C renal
  TGI: > 100 µM
BT-549 breast
  TGI: > 100 µM
MDA-MB-231 breast
  TGI: 80.6 µM
OVCAR-4 ovarian
  TGI: > 100 µM
RXF 393 renal
  TGI: 67.5 µM
SNB-19 CNS
  TGI: 43.3 µM
SF-539 CNS
  TGI: 46.4 µM
HCT-116 colon
  TGI: > 100 µM
LOX IMVI melanoma
  TGI: > 100 µM
SF-268 CNS
  TGI: > 81.8 µM
NCI-H522 lung
  TGI: > 100 µM
HOP-92 NSCLC
  TGI: > 82.3 µM
NCI-H460 lung
  TGI: > 100 µM
EKVX NSCLC
  TGI: > 100 µM
ACHN renal
  TGI: > 100 µM
SF-295 CNS
  TGI: 55.3 µM
HS 578T breast
  TGI: > 100 µM
SW-620 colon
  TGI: > 100 µM
SR leukemia
  TGI: > 100 µM
NCI-H23 lung
  TGI: > 100 µM
COLO 205 colon
  TGI: > 100 µM
A498 renal
  TGI: > 96.1 µM
SK-MEL-5 melanoma
  TGI: > 100 µM
OVCAR-8 ovarian
  TGI: > 100 µM
NCI/ADR-RES ovarian
  TGI: > 100 µM
MOLT-4 leukemia
  TGI: > 77.9 µM
A549 NSCLC
  TGI: > 100 µM
786-0 renal
  TGI: 33.2 µM
SK-MEL-2 melanoma
  TGI: > 88.7 µM
CAKI-1 renal
  TGI: > 100 µM
HOP-62 NSCLC
  TGI: 44 µM
MDA-N
  TGI: > 100 µM
NCI-H226 lung
  TGI: > 100 µM
K-562 leukemia
  TGI: > 79.7 µM
TK-10 renal
  TGI: 79 µM
OVCAR-5 ovarian
  TGI: > 100 µM
OVCAR-3 ovarian
  TGI: > 100 µM
MALME-3M melanoma
  TGI: > 89.6 µM

## COP(=O)(OC)C12CCOCCN1c1ccccc1C2=O (stereo not drawn)
UACC-62 melanoma
  TGI: > 100 µM
PC-3 prostate
  TGI: > 100 µM
RPMI-8226 leukemia
  TGI: > 100 µM
KM12 colon
  TGI: > 100 µM
MCF7 breast
  TGI: > 100 µM
SK-MEL-28 melanoma
  TGI: > 100 µM
IGROV1 ovarian
  TGI: > 100 µM
UACC-257 melanoma
  TGI: > 100 µM
HCC-2998 colon
  TGI: > 100 µM
UO-31 renal
  TGI: > 100 µM
M14 melanoma
  TGI: > 100 µM
HCT-15 colon
  TGI: > 100 µM
T-47D breast
  TGI: > 100 µM
HT29 colon
  TGI: > 100 µM
SK-OV-3 ovarian
  TGI: > 100 µM
MDA-MB-435
  TGI: > 100 µM
SNB-75 CNS
  TGI: > 100 µM
CCRF-CEM leukemia
  TGI: > 100 µM
DU-145 prostate
  TGI: > 100 µM
U251 CNS
  TGI: > 100 µM
SN12C renal
  TGI: > 100 µM
BT-549 breast
  TGI: > 100 µM
MDA-MB-231 breast
  TGI: > 100 µM
HL-60(TB) leukemia
  TGI: > 100 µM
OVCAR-4 ovarian
  TGI: > 100 µM
SNB-19 CNS
  TGI: > 100 µM
SF-539 CNS
  TGI: > 100 µM
HCT-116 colon
  TGI: > 100 µM
SF-268 CNS
  TGI: > 100 µM
NCI-H522 lung
  TGI: > 100 µM
HOP-92 NSCLC
  TGI: > 100 µM
NCI-H460 lung
  TGI: > 100 µM
EKVX NSCLC
  TGI: > 100 µM
ACHN renal
  TGI: > 100 µM
SF-295 CNS
  TGI: > 100 µM
HS 578T breast
  TGI: > 100 µM
SW-620 colon
  TGI: > 100 µM
NCI-H23 lung
  TGI: > 100 µM
COLO 205 colon
  TGI: > 100 µM
A498 renal
  TGI: > 100 µM
SK-MEL-5 melanoma
  TGI: > 100 µM
OVCAR-8 ovarian
  TGI: > 100 µM
NCI/ADR-RES ovarian
  TGI: > 100 µM
MOLT-4 leukemia
  TGI: > 100 µM
A549 NSCLC
  TGI: > 100 µM
786-0 renal
  TGI: > 100 µM
SK-MEL-2 melanoma
  TGI: > 100 µM
CAKI-1 renal
  TGI: > 100 µM
HOP-62 NSCLC
  TGI: > 100 µM
MDA-N
  TGI: > 100 µM
NCI-H226 lung
  TGI: > 100 µM
TK-10 renal
  TGI: > 100 µM
OVCAR-5 ovarian
  TGI: > 100 µM
OVCAR-3 ovarian
  TGI: > 100 µM
MALME-3M melanoma
  TGI: > 100 µM

Reference: PubChem BioAssay (NCI)
